Literature values, collected in patent US9629818B2, “Pharmaceutical composition of tapentadol for parenteral administration” (TORRENT PHARMACEUTICALS LTD, priority 2012, dated 2017).

What was measured:
[1] = given orally
[2] = in vivo

**Q.** Which results are given for CC[C@@H](c1cccc(O)c1)[C@@H](C)CN(C)C [tapentadol, (−)-(1R,2R)-3-(3-dimethylamino-1-ethyl-2-methyl-propyl)-phenol]?
**A.** parent compound metabolized [1]: About 97%; duration of analgesic effect [2]: ≤ 12 h
